As usually defined, the IC50 is the concentration at which inhibition is half-maximal. Low values mean higher potency, high ones lower potency.

Like-named read-outs stand apart in the source and are kept apart here.

The target of test [1] is T1, FAAH (Mus musculus (Mouse), UniProt O08914). In words: In vitro competitive activity-based protein profiling (mouse brain membrane fraction or cell lysates), FAAH band. The format is biochemical. The conditions noted are these: for inhibition at 1 µM: read-out: FAAH % Inh 1 μM (mouse); for IC50: competitive ABPP. The procedure, abridged: (§1)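 Competitive ABPP: proteome 1.0 mg/mL protein + inhibitor, 30 min, 37° C; FP-Rh probe (stock 50 μM in DMSO) added, 30 min, 37° C; SDS quench, SDS-PAGE, fluorescent band intensity read.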
T1 sequence (O08914 whole entry): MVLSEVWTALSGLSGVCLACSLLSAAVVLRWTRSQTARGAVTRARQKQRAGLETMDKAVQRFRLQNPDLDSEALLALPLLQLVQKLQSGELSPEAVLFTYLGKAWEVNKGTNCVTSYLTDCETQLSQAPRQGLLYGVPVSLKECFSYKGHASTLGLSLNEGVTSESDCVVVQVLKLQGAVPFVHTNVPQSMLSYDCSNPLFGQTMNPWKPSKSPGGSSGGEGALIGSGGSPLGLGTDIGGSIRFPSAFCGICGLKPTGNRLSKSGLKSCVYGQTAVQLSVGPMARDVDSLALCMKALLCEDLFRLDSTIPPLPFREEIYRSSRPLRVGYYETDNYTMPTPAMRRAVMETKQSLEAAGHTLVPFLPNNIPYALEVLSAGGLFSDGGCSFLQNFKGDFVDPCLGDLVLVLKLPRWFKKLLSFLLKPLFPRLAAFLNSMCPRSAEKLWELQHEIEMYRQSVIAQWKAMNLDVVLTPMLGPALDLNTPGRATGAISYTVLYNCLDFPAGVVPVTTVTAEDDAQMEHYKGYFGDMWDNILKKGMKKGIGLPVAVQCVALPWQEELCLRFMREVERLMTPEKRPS

Test [2] has as its target T2, MAGL (Mus musculus (Mouse), UniProt O35678). In words: In vitro competitive activity-based protein profiling (mouse brain membrane fraction or cell lysates), MAGL band. The format is biochemical. The conditions noted are these: for inhibition at 1 µM: read-out: MAGL % Inh 1 μM (mouse); for IC50: competitive ABPP. Here is the method:
In Vitro Competitive Activity-Based Protein Profiling.
Proteomes (mouse brain membrane fraction or cell lysates) (50 μL, 1.0 mg/mL total protein concentration) were preincubated with varying concentrations of inhibitors at 37° C. After 30 min, FP—Rh (1.0 μL, 50 μM in DMSO) was added and the mixture was incubated for another 30 min at 37° C. Reactions were quenched with SDS loading buffer (50 μL-4×) and run on SDS-PAGE.

For test [3], the target named is T3, ABHD6 (Mus musculus (Mouse), UniProt Q8R2Y0). In words: Mouse brain proteomes from inhibitor treated mice (oral gavage, sacrificed 4 h after administration, ABPP analysis), ABHD6. The format is in vivo, mouse (C57Bl/6J). The conditions noted are these: 5 mg/kg oral gavage. The method, boiled down:
(§2)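 Oral dosing of C57Bl/6J wild-type mice at 5 mg/kg, brain collection 4 h afterwards, then ABPP of brain proteomes to give % target inhibition.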

The target of test [4] is T3, ABHD6. In words: In vitro competitive activity-based protein profiling (mouse brain membrane fraction or cell lysates), ABHD6 band. The format is biochemical. The conditions noted are these: for inhibition at 1 µM: read-out: ABHD6 % Inh 1 μM (mouse); for IC50: competitive ABPP. The method, boiled down:
as §1

Test [5] has as its target MAGL (Homo sapiens (Human), UniProt Q99685). The test is described as follows: In vitro competitive activity-based protein profiling (human prefrontal cortex or cell membrane fractions; hMAGL expressed in HEK293T cells). The format is biochemical. The procedure, abridged: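 Human prefrontal cortex or cell membrane proteomes (1.0-2.0 mg/mL), or lysates of HEK293T cells expressing hMAGL diluted into mock proteome, preincubated with inhibitor 30 min at 37° C. FP-Rh or JW912 probe then added for 30 min at room temperature. Residual labeling resolved by SDS-PAGE.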

Test [6] concerns the target T2, MAGL. In words: Mouse brain proteomes from inhibitor treated mice (oral gavage, sacrificed 4 h after administration, ABPP analysis). The conditions noted are these: 5 mg/kg oral gavage. Type of test: in vivo, mouse (C57Bl/6J). The procedure, abridged:
as §2

The target of test [7] is T1, FAAH. In words: Mouse brain proteomes from inhibitor treated mice (oral gavage, sacrificed 4 h after administration, ABPP analysis), FAAH. Type of test: in vivo, mouse (C57Bl/6J). The conditions noted are these: 5 mg/kg oral gavage. The procedure, abridged:
as §2

The mark [8] stands for this setting: human proteome, competitive ABPP.

T2 sequence (O35678 whole entry): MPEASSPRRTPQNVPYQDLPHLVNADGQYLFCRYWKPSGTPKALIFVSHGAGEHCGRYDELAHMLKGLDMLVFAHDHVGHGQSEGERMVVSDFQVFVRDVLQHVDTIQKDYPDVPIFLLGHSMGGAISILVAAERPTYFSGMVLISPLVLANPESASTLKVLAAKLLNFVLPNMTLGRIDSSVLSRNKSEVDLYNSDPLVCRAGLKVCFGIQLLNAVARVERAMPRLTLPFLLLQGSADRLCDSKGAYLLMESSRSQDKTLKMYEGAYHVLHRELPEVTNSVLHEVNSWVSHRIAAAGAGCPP
Chain of MAGL (Homo sapiens (Human), UniProt Q99685) (Q99685 whole entry): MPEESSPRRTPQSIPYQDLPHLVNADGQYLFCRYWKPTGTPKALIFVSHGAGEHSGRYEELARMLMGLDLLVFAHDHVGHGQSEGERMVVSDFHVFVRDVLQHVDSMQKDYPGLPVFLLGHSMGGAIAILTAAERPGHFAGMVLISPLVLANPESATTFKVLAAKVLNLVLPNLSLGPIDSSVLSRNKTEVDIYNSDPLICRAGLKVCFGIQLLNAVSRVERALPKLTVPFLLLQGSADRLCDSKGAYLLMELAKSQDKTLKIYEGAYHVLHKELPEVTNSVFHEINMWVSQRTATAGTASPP
T3 sequence (Q8R2Y0 whole entry): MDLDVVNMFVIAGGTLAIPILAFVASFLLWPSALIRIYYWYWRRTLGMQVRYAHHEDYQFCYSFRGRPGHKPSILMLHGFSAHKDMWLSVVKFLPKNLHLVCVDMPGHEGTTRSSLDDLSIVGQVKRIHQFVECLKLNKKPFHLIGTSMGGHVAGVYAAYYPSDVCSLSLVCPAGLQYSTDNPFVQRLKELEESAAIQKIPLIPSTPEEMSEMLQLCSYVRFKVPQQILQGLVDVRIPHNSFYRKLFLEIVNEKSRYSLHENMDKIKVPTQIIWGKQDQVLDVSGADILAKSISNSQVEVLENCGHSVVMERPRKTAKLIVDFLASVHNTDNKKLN

Turning to `O=C(O)[C@@H]1CCCCN1c1cc(CN2CCCC23CCN(C(=O)OC(C(F)(F)F)C(F)(F)F)CC3)cc(C(F)(F)F)c1` [Example 196, (S)-1-(3-((8-(((1,1,1,3,3,3-Hexafluoropropan-2-yl)oxy)carbonyl)-1,8-diazaspiro[4.5]decan-1-yl)methyl)-5-(trifluoromethyl)phenyl)piperidine-2-carboxylic acid], the inhibition at 1 µM is less than 25% in test [1] (mouse proteome), greater than 75% in test [2] (mouse proteome) and less than 25% in test [4] (mouse proteome). In addition, the “ABHD6 % Inh 5 mg/kg (mouse)” value in test [3] is on record as “# (# is <25%)”. In test [5] (setting [8]), this molecule showed an IC50 of less than 0.1 µM. Moreover, the “MAGL % Inh 5 mg/kg (mouse)” value in test [6] is on record as “### (### is ≥75%)”. For the same molecule, in test [7], the “FAAH % Inh 5 mg/kg (mouse)” value is “# (# is <25%)”.

Regarding `N#Cc1ccc(CN2CCCC23CCN(C(=O)OC(C(F)(F)F)C(F)(F)F)CC3)c(N2CCC(C(=O)O)CC2)c1` [Example 249], the inhibition at 1 µM in test [1] (mouse) was less than 25%; in test [2] (mouse), greater than 75%; in test [4] (mouse) it was less than 25%. Further, the “ABHD6 % Inh 5 mg/kg (mouse)” value in test [3] is listed as “# (# is <25%)”. The molecule also gave a 50% inhibitory concentration (IC50) in test [5] (human) of less than 0.1 µM. The “MAGL % Inh 5 mg/kg (mouse)” value in test [6] is recorded as “## (## is equal to or greater than 25% but less than 75%)”. In addition, the “FAAH % Inh 5 mg/kg (mouse)” value in test [7] is “# (# is <25%)”.

Turning to `O=C(O)C1CCN(c2cc(F)cc(CN3CCCC34CCN(C(=O)OC(C(F)(F)F)C(F)(F)F)CC4)c2)CC1` [Example 236], the inhibition at 1 µM in test [1] (mouse) is less than 25%; in test [2] (mouse), greater than 75%; in test [4] (mouse), less than 25%. In test [3], the “ABHD6 % Inh 5 mg/kg (mouse)” value is “# (# is <25%)”. In test [5] (human), this molecule gave an IC50 of less than 0.1 µM. In addition, the “MAGL % Inh 5 mg/kg (mouse)” value in test [6] was “### (### is ≥75%)”. For the same molecule, the “FAAH % Inh 5 mg/kg (mouse)” value in test [7] is recorded as “# (# is <25%)”.

As for `O=C(O)C1CCN(Cc2cc(CN3CCCC34CCN(C(=O)OC(C(F)(F)F)C(F)(F)F)CC4)cc(OC(F)(F)F)c2)C1` (centres unmarked) [Example 270], the inhibition at 1 µM in test [1] (mouse) was less than 25%; in test [2] (mouse), greater than 75%; in test [4] (mouse), less than 25%. Moreover, in test [3], the “ABHD6 % Inh 5 mg/kg (mouse)” value is “# (# is <25%)”. Further, the half-maximal inhibitory concentration (IC50) in test [5] (human) is less than 0.1 µM. For the same molecule, the “MAGL % Inh 5 mg/kg (mouse)” value in test [6] is reported as “## (## is equal to or greater than 25% but less than 75%)”. For the same molecule, the “FAAH % Inh 5 mg/kg (mouse)” value in test [7] was “# (# is <25%)”.

Consider `CC1(C(=O)O)CN(c2cc(CN3CCCC34CCN(C(=O)OC(C(F)(F)F)C(F)(F)F)CC4)cc(C(F)(F)F)c2)CCO1` (centres unmarked) [Example 195, 4-(3-((8-(((1,1,1,3,3,3-hexafluoropropan-2-yl)oxy)carbonyl)-1,8-diazaspiro[4.5]decan-1-yl)methyl)-5-(trifluoromethyl)phenyl)-2-methylmorpholine-2-carboxylic acid], for which the inhibition at 1 µM in test [1] (mouse proteome) was less than 25%; in test [2] (mouse proteome), greater than 75%; in test [4] (mouse proteome) it was less than 25%. Also, the concentration for half-maximal inhibition (IC50) was greater than 1 µM in test [1] (mouse proteome), less than 0.1 µM in test [2] (mouse proteome), greater than 1 µM in test [4] (mouse proteome) and less than 0.1 µM in test [5] (setting [8]). Further, the “ABHD6 % Inh 5 mg/kg (mouse)” value in test [3] is “# (# is <25%)”. In addition, the “MAGL % Inh 5 mg/kg (mouse)” value in test [6] was “# (# is <25%)”. Further, the “FAAH % Inh 5 mg/kg (mouse)” value in test [7] is on record as “# (# is <25%)”.

Consider `O=C(O)C1CCN(c2cc(C(F)(F)F)ccc2CN2CCCC23CCN(C(=O)OC(C(F)(F)F)C(F)(F)F)CC3)CC1` [Example 121, 1-(2-((8-(((1,1,1,3,3,3-Hexafluoropropan-2-yl)oxy)carbonyl)-1,8-diazaspiro[4.5]decan-1-yl)methyl)-5-(trifluoromethyl)phenyl)piperidine-4-carboxylic acid], for which the inhibition at 1 µM in test [1] (mouse proteome) is less than 25%; in test [2] (mouse proteome), greater than 75%; in test [4] (mouse proteome) it was less than 25%. Further, the IC50 in test [1] (mouse proteome) was greater than 1 µM; in test [2] (mouse proteome), less than 0.1 µM; in test [4] (mouse proteome), greater than 1 µM; in test [5] (setting [8]), less than 0.1 µM. For the same molecule, the “ABHD6 % Inh 5 mg/kg (mouse)” value in test [3] is listed as “# (# is <25%)”. The “MAGL % Inh 5 mg/kg (mouse)” value in test [6] was “### (### is ≥75%)”. Also, in test [7], the “FAAH % Inh 5 mg/kg (mouse)” value was “# (# is <25%)”.

In the case of `CS(=O)(=O)C1CCN(c2cc(C(F)(F)F)ccc2CN2CCCC23CCN(C(=O)OC(C(F)(F)F)C(F)(F)F)CC3)C1` (centres unmarked) [Example 193, 1,1,1,3,3,3-Hexafluoropropan-2-yl 1-(2-(3-(methylsulfonyl)pyrrolidin-1-yl)-4-(trifluoromethyl)benzyl)-1,8-diazaspiro[4.5]decane-8-carboxylate], the inhibition at 1 µM in test [1] (mouse proteome) was less than 25%; in test [2] (mouse proteome), greater than 75%; in test [4] (mouse proteome) it was less than 25%. In addition, in test [3], the “ABHD6 % Inh 5 mg/kg (mouse)” value is listed as “# (# is <25%)”. This molecule registered an IC50 in test [5] (setting [8]) of less than 0.1 µM. Also, in test [6], the “MAGL % Inh 5 mg/kg (mouse)” value is reported as “## (## is equal to or greater than 25% but less than 75%)”. In test [7], the “FAAH % Inh 5 mg/kg (mouse)” value is listed as “# (# is <25%)”.

Consider `CC1(C(=O)O)CCN(c2cc(C(F)(F)F)ccc2CN2CCCC23CCN(C(=O)OC(C(F)(F)F)C(F)(F)F)CC3)C1` (centres unmarked) [Example 230], for which the inhibition at 1 µM is less than 25% in test [1] (mouse), greater than 75% in test [2] (mouse) and less than 25% in test [4] (mouse). For the same molecule, the “ABHD6 % Inh 5 mg/kg (mouse)” value in test [3] was “# (# is <25%)”. For the same molecule, in test [5] (human), the IC50 was less than 0.1 µM. For the same molecule, the “MAGL % Inh 5 mg/kg (mouse)” value in test [6] was “## (## is equal to or greater than 25% but less than 75%)”. In addition, the “FAAH % Inh 5 mg/kg (mouse)” value in test [7] is on record as “# (# is <25%)”.

The record behind these values is patent US10030020B2, “Spirocycle compounds and methods of making and using same” (Abide Therapeutics, Inc., priority 2016, dated 2018).
